Converted amounts (≈) assume the structure as drawn. Positions of bridges follow the written chain, without caps; N, C: chain ends. Non-standard residues stand in square brackets, D forms with d. Residues, ends and D or L forms follow the SMILES beside them. Groups on a side chain read outwards from the residue. *: point of attachment. Palmitoyl(16-(5-tetrazolyl)) = O=C(CCCCCCCCCCCCCCCc1nnn[nH]1)*; Lys(CH2CO2H)2 = N[C@@H](CCCCN(CC(=O)O)CC(=O)O)C(=O)O; X1 = O=C(O)CCCCCCCCCCCCCCCCC(=O)NCCOCCOCCN*; C16 diacid = O=C(O)CCCCCCCCCCCCCCC(=O)*; Orn = NCCC[C@H](N)C(=O)O; Dab = NCC[C@H](N)C(=O)O; AEEA = NCCOCCOCC(=O)O

The data set is described as follows: physchem. The protocol:
From a stock solution in vehicle, either H2O or 10 mM phosphate, containing 1 mg (as weighed) compound per ml, 8-11 aliquots are withdrawn and pH-adjusted individually with HCl/NaOH, to cover the whole pH range.

The mark [1] stands for this setting: pH 6.7, Solubility Conc., pH 6.7, vehicle 10 mM phosphate.
[2] abbreviates: pH 7.2, Solubility Conc., pH 7.2, vehicle 10 mM phosphate.
Where [3] appears, read: pH 8.1, Solubility Conc., pH 8.1, vehicle 10 mM phosphate.

What is called solubility is the concentration that dissolves in the medium under given conditions. `CC(=O)N[C@H]1CC(=O)NCCC[C@@H](C(=O)N2CCC[C@H]2C(=O)N2CCC[C@H]2C(=O)N[C@@H](CCCNC(=N)N)C(=O)N[C@@H](CC(=O)O)C(=O)N[C@@H](CCCCN(CC(=O)O)CC(=O)O)C(=O)N[C@@H](CCCCNC(=O)COCCOCCNC(=O)CCCCCCCCCCCCCCCc2nnn[nH]2)C(N)=O)NC(=O)[C@H](Cc2c[nH]c3ccccc23)NC(=O)[C@H](CCCNC(=N)N)NC(=O)[C@@H](Cc2ccccc2)NC(=O)[C@H](Cc2c[nH]cn2)NC1=O` [Example 2, Ac-c[Asp-His-D-Phe-Arg-Trp-Orn]-Pro-Pro-Arg-Asp-Lys(biscarboxymethyl)-Lys[(2-{2-[16-(tetrazol-5-yl)hexadecanoylamino]ethoxy}ethoxy)acetyl]-NH2] (Ac-DH[dF]RW[Orn]PPRD[Lys(CH2CO2H)2]K([AEEA-Palmitoyl(16-(5-tetrazolyl))])-NH2; lactam 1-6): the solubility was determined as 21 µM (≈ 45.9 µg/mL) (pH 5.8, Solubility Conc.); 26 µM (≈ 56.9 µg/mL) (pH 6.4, Solubility Conc.); 67 µM (≈ 146 µg/mL) (pH 7, Solubility Conc.); 172 µM (≈ 376 µg/mL) (pH 7.2, Solubility Conc.); 267 µM (≈ 584 µg/mL) (pH 7.3, Solubility Conc.); 465 µM (≈ 1020 µg/mL) (pH 7.4, Solubility Conc.). The same compound returned a solubility (pH 7.6, Solubility Conc.) of 454 µM (≈ 993 µg/mL) and a solubility (pH 7.9, Solubility Conc.) of 458 µM (≈ 1000 µg/mL).

As for `CC(=O)N[C@H]1CCNC(=O)C[C@@H](C(=O)N2CCC[C@H]2C(=O)N[C@@H](CO)C(=O)N[C@@H](CO)C(=O)N[C@@H](CO)C(=O)N[C@@H](CCCCN(CC(=O)O)CC(=O)O)C(=O)N[C@@H](CO)C(=O)N[C@@H](CO)C(=O)NCCOCCOCCNC(=O)CCCCCCCCCCCCCCCCC(=O)O)NC(=O)[C@H](Cc2c[nH]c3ccccc23)NC(=O)[C@H](CCCNC(=N)N)NC(=O)[C@@H](Cc2ccccc2)NC(=O)[C@H](Cc2c[nH]cn2)NC1=O` [Example 3, Ac-c[Dab-His-D-Phe-Arg-Trp-Asp]-Pro-Ser-Ser-Ser-Lys(biscarboxymethyl)-Ser-Ser-NH(2-{2-[2-(17-carboxyheptadecanoylamino)ethoxy]ethoxy}ethyl)] (Ac-[Dab]H[dF]RWDPSSS[Lys(CH2CO2H)2]SS-X1; lactam 1-6), the solubility by setting is: (pH 4.9, Solubility Conc., pH 4.9, vehicle 10 mM phosphate) 24 µM (≈ 50.1 µg/mL); (pH 5.6, Solubility Conc., pH 5.6, vehicle 10 mM phosphate) 32 µM (≈ 66.8 µg/mL); (pH 6.1, Solubility Conc., pH 6.1, vehicle 10 mM phosphate) 54 µM (≈ 113 µg/mL); under setting [1], 154 µM (≈ 321 µg/mL); (pH 6.9, Solubility Conc., pH 6.9, vehicle 10 mM phosphate) 295 µM (≈ 616 µg/mL); (pH 7.1, Solubility Conc., pH 7.1, vehicle 10 mM phosphate) 396 µM (≈ 827 µg/mL). Also, the solubility runs as follows: under setting [2], 401 µM (≈ 837 µg/mL); (pH 7.4, Solubility Conc., pH 7.4, vehicle 10 mM phosphate) 396 µM (≈ 827 µg/mL); (pH 7.7, Solubility Conc., pH 7.7, vehicle 10 mM phosphate) 345 µM (≈ 720 µg/mL); under setting [3], 360 µM (≈ 751 µg/mL).

For `CC(=O)N[C@H]1CCCNC(=O)CC[C@@H](C(=O)N2CCC[C@H]2C(=O)N2CCC[C@H]2C(=O)N[C@@H](CCCNC(=N)N)C(=O)N[C@@H](CC(=O)O)C(=O)N[C@@H](CCCCN(CC(=O)O)CC(=O)O)C(=O)N[C@@H](CCCCNC(=O)COCCOCCNC(=O)CCCCCCCCCCCCCCCc2nnn[nH]2)C(N)=O)NC(=O)[C@H](Cc2c[nH]c3ccccc23)NC(=O)[C@H](CCCNC(=N)N)NC(=O)[C@@H](Cc2ccccc2)NC(=O)[C@H](Cc2c[nH]cn2)NC1=O` [Example 8, Ac-c[Orn-His-D-Phe-Arg-Trp-Glu]-Pro-Pro-Arg-Asp-Lys(biscarboxymethyl)-Lys[(2-{2-[16-(tetrazol-5-yl)hexadecanoylamino]ethoxy}ethoxy)acetyl]-NH2] (Ac-[Orn]H[dF]RWEPPRD[Lys(CH2CO2H)2]K([AEEA-Palmitoyl(16-(5-tetrazolyl))])-NH2; lactam 1-6), the solubility stood at 35 µM (≈ 77 µg/mL) (pH 6.5, Solubility Conc.); 44 µM (≈ 96.8 µg/mL) (pH 6.8, Solubility Conc.); 91 µM (≈ 200 µg/mL) (pH 7, Solubility Conc.); 268 µM (≈ 590 µg/mL) (pH 7.2, Solubility Conc.); 482 µM (≈ 1060 µg/mL) (pH 7.3, Solubility Conc.); 551 µM (≈ 1210 µg/mL) (pH 7.4, Solubility Conc.). The solubility by setting is: (pH 7.5, Solubility Conc.) 538 µM (≈ 1180 µg/mL); (pH 7.6, Solubility Conc.) 582 µM (≈ 1280 µg/mL); (pH 7.8, Solubility Conc.) 556 µM (≈ 1220 µg/mL).

For the compound `CC(=O)N[C@H]1CCCNC(=O)C[C@@H](C(=O)N2CCC[C@H]2C(=O)N[C@@H](CO)C(=O)N[C@@H](CO)C(=O)N[C@@H](CO)C(=O)N[C@@H](CCCCN(CC(=O)O)CC(=O)O)C(=O)N[C@@H](CO)C(=O)N[C@@H](CO)C(=O)N[C@@H](CCCCNC(=O)COCCOCCNC(=O)CCCCCCCCCCCCCCC(=O)O)C(N)=O)NC(=O)[C@H](Cc2c[nH]c3ccccc23)NC(=O)[C@H](CCCNC(=N)N)NC(=O)[C@@H](Cc2ccccc2)NC(=O)[C@H](Cc2c[nH]cn2)NC1=O` [Example 12, Ac-c[Orn-His-D-Phe-Arg-Trp-Asp]-Pro-Ser-Ser-Ser-Lys(biscarboxymethyl)-Ser-Ser-Lys({2-[2-(15-carboxypentadecanoylamino)ethoxy]ethoxy}acetyl)-NH2] (Ac-[Orn]H[dF]RWDPSSS[Lys(CH2CO2H)2]SSK([AEEA-C16 diacid])-NH2; lactam 1-6), the solubility runs as follows: (pH 4.8, Solubility Conc., pH 4.8, vehicle 10 mM phosphate) 228 µM (≈ 505 µg/mL); (pH 5.8, Solubility Conc., pH 5.8, vehicle 10 mM phosphate) 300 µM (≈ 665 µg/mL); (pH 6.3, Solubility Conc., pH 6.3, vehicle 10 mM phosphate) 400 µM (≈ 886 µg/mL); under setting [1], 431 µM (≈ 955 µg/mL); (pH 7, Solubility Conc., pH 7.0, vehicle 10 mM phosphate) 426 µM (≈ 944 µg/mL); under setting [2], 479 µM (≈ 1060 µg/mL). Further, the solubility (pH 7.5, Solubility Conc., pH 7.5, vehicle 10 mM phosphate) was determined as 405 µM (≈ 897 µg/mL); the solubility (pH 7.8, Solubility Conc., pH 7.8, vehicle 10 mM phosphate) stood at 480 µM (≈ 1060 µg/mL); the solubility under setting [3] amounted to 439 µM (≈ 973 µg/mL).

In the case of `CC(=O)N[C@H]1CCC(=O)NCC[C@@H](C(=O)N2CCC[C@H]2C(=O)N2CCC[C@H]2C(=O)N[C@@H](CCCNC(=N)N)C(=O)N[C@@H](CC(=O)O)C(=O)N[C@@H](CCCCN(CC(=O)O)CC(=O)O)C(=O)N[C@@H](CCCCNC(=O)COCCOCCNC(=O)CCCCCCCCCCCCCCCc2nnn[nH]2)C(N)=O)NC(=O)[C@H](Cc2c[nH]c3ccccc23)NC(=O)[C@H](CCCNC(=N)N)NC(=O)[C@@H](Cc2ccccc2)NC(=O)[C@H](Cc2c[nH]cn2)NC1=O` [Example 16, Ac-c[Glu-His-D-Phe-Arg-Trp-Dab]-Pro-Pro-Arg-Asp-Lys(biscarboxymethyl)-Lys[(2-{2-[16-(tetrazol-5-yl)hexadecanoylamino]ethoxy}ethoxy)acetyl]-NH2] (Ac-EH[dF]RW[Dab]PPRD[Lys(CH2CO2H)2]K([AEEA-Palmitoyl(16-(5-tetrazolyl))])-NH2; lactam 1-6), the solubility stood at 42 µM (≈ 91.8 µg/mL) (pH 6.7, Solubility Conc.); 96 µM (≈ 210 µg/mL) (pH 7.1, Solubility Conc.); 191 µM (≈ 418 µg/mL) (pH 7.3, Solubility Conc.); 262 µM (≈ 573 µg/mL) (pH 7.4, Solubility Conc.); 357 µM (≈ 781 µg/mL) (pH 7.5, Solubility Conc.); 431 µM (≈ 942 µg/mL) (pH 7.6, Solubility Conc.). Further, the solubility reads like this: (pH 7.8, Solubility Conc.) 409 µM (≈ 894 µg/mL); (pH 8, Solubility Conc.) 447 µM (≈ 977 µg/mL).

For the compound `CC(=O)N[C@H]1CCCNC(=O)C[C@@H](C(=O)N2CCC[C@H]2C(=O)N2CCC[C@H]2C(=O)N[C@@H](CCCNC(=N)N)C(=O)N[C@@H](CC(=O)O)C(=O)N[C@@H](CCCCN(CC(=O)O)CC(=O)O)C(=O)N[C@@H](CCCCNC(=O)COCCOCCNC(=O)CCCCCCCCCCCCCCCc2nnn[nH]2)C(N)=O)NC(=O)[C@H](Cc2c[nH]c3ccccc23)NC(=O)[C@H](CCCNC(=N)N)NC(=O)[C@@H](Cc2ccccc2)NC(=O)[C@H](Cc2c[nH]cn2)NC1=O` [Example 17, Ac-c[Orn-His-D-Phe-Arg-Trp-Asp]-Pro-Pro-Arg-Asp-Lys(biscarboxymethyl)-Lys[(2-{2-[16-(tetrazol-5-yl)hexadecanoylamino]ethoxy}ethoxy)acetyl]-NH2] (Ac-[Orn]H[dF]RWDPPRD[Lys(CH2CO2H)2]K([AEEA-Palmitoyl(16-(5-tetrazolyl))])-NH2; lactam 1-6), the solubility runs as follows: (pH 5.8, Solubility Conc.) 25 µM (≈ 54.7 µg/mL); (pH 6.7, Solubility Conc.) 45 µM (≈ 98.4 µg/mL); (pH 6.9, Solubility Conc.) 75 µM (≈ 164 µg/mL); (pH 7.2, Solubility Conc.) 297 µM (≈ 649 µg/mL); (pH 7.3, Solubility Conc.) 428 µM (≈ 936 µg/mL); (pH 7.4, Solubility Conc.) 490 µM (≈ 1070 µg/mL). Also, the solubility was determined as 470 µM (≈ 1030 µg/mL) (pH 7.8, Solubility Conc.) and 487 µM (≈ 1060 µg/mL) (pH 8, Solubility Conc.).

In the case of `CC(=O)N[C@H]1CCC(=O)NCCC[C@@H](C(=O)N2CCC[C@H]2C(=O)N2CCC[C@H]2C(=O)N[C@@H](CCCNC(=N)N)C(=O)N[C@@H](CC(=O)O)C(=O)N[C@@H](CCCCN(CC(=O)O)CC(=O)O)C(=O)N[C@@H](CCCCNC(=O)COCCOCCNC(=O)CCCCCCCCCCCCCCC(=O)O)C(N)=O)NC(=O)[C@H](Cc2c[nH]c3ccccc23)NC(=O)[C@H](CCCNC(=N)N)NC(=O)[C@@H](Cc2ccccc2)NC(=O)[C@H](Cc2cnc[nH]2)NC1=O` [Example 18, Ac-c[Glu-His-D-Phe-Arg-Trp-Orn]-Pro-Pro-Arg-Asp-Lys(biscarboxymethyl)-Lys({2-[2-(15-carboxypentadecanoylamino)ethoxy]ethoxy}acetyl)-NH2] (Ac-EH[dF]RW[Orn]PPRD[Lys(CH2CO2H)2]K([AEEA-C16 diacid])-NH2; lactam 1-6), the solubility worked out at 193 µM (≈ 417 µg/mL) (pH 5.3, Solubility Conc.); 310 µM (≈ 670 µg/mL) (pH 6.1, Solubility Conc.); 326 µM (≈ 705 µg/mL) (pH 6.4, Solubility Conc.); 392 µM (≈ 848 µg/mL) (pH 6.5, Solubility Conc.); 447 µM (≈ 967 µg/mL) (pH 6.8, Solubility Conc.); 484 µM (≈ 1050 µg/mL) (pH 7.1, Solubility Conc.). Also, the concentration in solution (pH 7.4, Solubility Conc.) (solubility) was 449 µM (≈ 971 µg/mL); the solubility (pH 7.7, Solubility Conc.) was 451 µM (≈ 975 µg/mL); the concentration in solution (pH 7.9, Solubility Conc.) (solubility) came to 474 µM (≈ 1030 µg/mL).

Source of the values: US20130012432A1, “Peptides for Treatment of Obesity” (Novo Nordisk A/S, priority 2010, published 2013).
